One assay relates to MKN-1 cells. As to the kind of experiment: Activity of inhibiting cell growth, MKN-1 (sulforhodamine B). The class given is cell-based. Particulars: Homo sapiens, MKN-1, 72 h, cell growth inhibition, 3 days incubation. As for the experimental part: (§1) Activity of Inhibiting Cell Growth
(§2) • (1) Method of cell culture
(§3) Clinical separative cancer cells HCT116 were cultured in Dulbecco′ modified Eagle's medium with 10% Fetal Bovine Serum, and clinical separative cancer cells MKN-1 were cultured in RPMI1640 medium added 10% Fetal Bovine Serum. Both cells were cultured at 37° C., under 5% CO2 and saturated steam. • (2) Determination of activity of inhibiting cell growth
(§4) The activity of inhibiting cell growth was measured using the modified method of Skehan's method (J. Natl. Cancer Inst. Vol.82, p.1107-1112, 1990), and so on. One hundred μL each of the culture medium containing 1×10^3 HCT116 or MKN-1 as living cells was pipetted to 96-well dish and cultured over night. […] Then, the diluted compounds or DMSO as the control, was added to the medium. One hundred μL of the medium added with the diluted drug solutions or DMSO was added to the cells cultured in 96-well dish, and was incubated for further 3 days.
(§5) To each well, 50 μL of trichloroacetic acid (50%) was added to fix the cells. The cells were stained using 0.4% sulforhodamine B. Sulforhodamine B was extracted with 10 mM tris buffer, and the optical density at 560 nm was compared with that of control at 450 nm.

In the next assay the test system is HCT116 cells. As to the kind of experiment: Activity of inhibiting cell growth, HCT116 (sulforhodamine B). The class given is cell-based. Particulars: Homo sapiens, HCT-116, 72 h, cell growth inhibition, 3 days incubation. Here is the method:
as §1, §2, §3, §4, §5

Another assay deals with cyclin D2-Cdk4 (Homo sapiens, UniProt P11802). Nature of the assay: Enzyme assay of cyclin D2-Cdk4 (33P-ATP phosphorylation of RB peptide substrate). The class given is biochemical. Conditions: Table 1, second value column (head repeats cyclin D1-Cdk4); 50 μM ATP, 100 μM peptide substrate, 30° C., 45 min.
Chain of cyclin D2-Cdk4 (P11802 whole entry): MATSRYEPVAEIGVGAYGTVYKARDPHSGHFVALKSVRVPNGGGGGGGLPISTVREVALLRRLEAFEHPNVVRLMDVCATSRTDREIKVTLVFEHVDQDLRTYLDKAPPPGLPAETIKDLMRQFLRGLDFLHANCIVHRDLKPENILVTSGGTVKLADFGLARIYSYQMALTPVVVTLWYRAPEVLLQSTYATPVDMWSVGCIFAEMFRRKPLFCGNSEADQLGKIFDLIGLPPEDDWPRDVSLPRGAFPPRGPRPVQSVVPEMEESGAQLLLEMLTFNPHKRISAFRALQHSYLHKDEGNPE
The target in a further assay is T1, cyclin D3-Cdk6 (Homo sapiens, UniProt Q00534).
T1 construct: made in house; host or cells: Sf9 insect cells, baculovirus co-infection
T1 sequence (Q00534 whole entry): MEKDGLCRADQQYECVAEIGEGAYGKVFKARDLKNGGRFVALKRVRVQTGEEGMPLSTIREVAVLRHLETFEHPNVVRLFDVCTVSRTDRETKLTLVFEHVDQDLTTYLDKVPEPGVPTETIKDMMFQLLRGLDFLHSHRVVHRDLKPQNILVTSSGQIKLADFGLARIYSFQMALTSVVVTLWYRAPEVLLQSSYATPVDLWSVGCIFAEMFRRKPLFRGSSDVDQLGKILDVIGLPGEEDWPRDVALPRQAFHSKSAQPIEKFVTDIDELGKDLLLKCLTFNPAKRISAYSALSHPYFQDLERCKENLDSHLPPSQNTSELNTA
T1 sequence (P30281 whole entry partner): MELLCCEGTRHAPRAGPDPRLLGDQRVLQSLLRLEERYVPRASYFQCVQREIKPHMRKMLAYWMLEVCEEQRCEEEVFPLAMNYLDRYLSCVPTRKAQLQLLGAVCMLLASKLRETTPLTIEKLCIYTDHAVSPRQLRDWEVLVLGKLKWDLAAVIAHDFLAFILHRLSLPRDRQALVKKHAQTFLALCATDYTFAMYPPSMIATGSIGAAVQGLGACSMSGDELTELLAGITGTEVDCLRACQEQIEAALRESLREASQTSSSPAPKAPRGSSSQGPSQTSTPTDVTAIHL
As to the kind of experiment: Enzyme assay of cyclin D3-Cdk6 (33P-ATP phosphorylation of peptide substrate). The class given is biochemical. Conditions: 100 μM peptide substrate, 50 μM ATP, 30° C. The text has this: • (1) Preparation of cyclin D1-Cdk6 and cyclin D3-Cdk6
As the same method of preparing cyclin D1-Cdk4, cDNA of Cdk6 and its activator cyclin D1 or D3 was recombined with baculovirus-expression vector to make recombinant baculovirus. This was co-infected to insect cell Sf9 to express an active complex of cyclin D1-Cdk6 or cyclin D3-Cdk6. The cells were recovered and solubilized and purified by HPLC columnchromatography. • (2) Enzyme assay of cyclin D1-Cdk6 and cyclin D3-Cdk6.
A peptide substrate used for cyclin D1-Cdk6 was synthetic peptide ([…] (SEQ ID No. 2) and that used for cyclin D3-Cdk6 was synthetic peptide ([…] (SEQ ID No. 3) (The EMBO J. vol. 15, p. 7060-7069, 1996).
The reaction was carried out using the modified procedure of Kitagawa's method (Oncogene, vol.7, p.1067-1074, 1992). The volume of the reaction solution was 21.1 μL. Purified cyclin D1-Cdk6 in R buffer and 400 μM peptide substrate or cyclin D3-Cdk6 and 100 μM pipetide substrate, unlabeled ATP (50 μM) and 1 μCi ATP labeled with γ-33P(2000-4000 Ci/mmole) were added to the reaction mixture. The mixture was incubated at 30° C. for 20 or 45 min. Then, 10 μL of phosphate buffer (350 mM) was added to stop the reaction. The peptide substrate was absorbed to P81 paper and its radioactivity was measured by a liquid scintillation counter. […]

Source text for cyclin D2-Cdk4: • (1) Preparation of cyclin D1-Cdk4 and cyclin D2-Cdk4
cDNA of Cdk4 and its activator cyclin D1 or D2 was subcloned into a baculovirus-expression vector to make recombinant baculovirus and then, they are co-infected to insect cell Sf9 to express an active complex of cyclin D1-Cdk4 or cyclin D2-Cdk4. The cells were recovered and solubilized and purified by HPLC columnchromatography (The the enzyme are EMBO J. vol.15, p.7060-7069, 1996). • (2) Enzyme assay of cyclin D1-Cdk4 and cyclin D2-Cdk4
The reaction was carried out using the modified procedure of Kitagawa's method (Oncogene, vol.7, p.1067-1074, 1992). The volume of the reaction solution was 21.1 μL. The reaction buffer (R buffer) consisted of 20 mM Tri-HCl buffer (pH7.4)/10 mM MgCl2/4.5 mM 2-mercaptoethanol/1 mM ethyleneglycolbis(β-aminoethylether)-N,N,N′,N′-tetracetic acid (EGTA). Purified cyclin D1-Cdk4 or D2-Cdk4, 100 μM peptide substrate, 50 μM unlabeled ATP and ATP labeled with 1 μCi γ-33P(2000-4000 Ci/mmole) were added to the reaction mixture. The mixture was incubated at 30° C. for 45 min. 10 μL of phosphate buffer (350 mM) was added to stop the reaction. The peptide substrate was absorbed to P81 paper and its radioactivity was measured by a liquid scintillation counter. ATP labeled with γ-33P was purchased from Daiich Chemicals, Ltd. […]

Broadly, the IC50 is the concentration that gives 50% inhibition. A higher IC50 goes with weaker potency. For the molecule `CN1CC[C@H](c2c(O)cc(O)c3c(=O)cc(-c4ccccc4Cl)oc23)[C@H](O)C1` (racemic) [(±)flavopiridol, flavopiridol], the half-inhibitory concentration (IC50) in the assay with MKN-1 cells turned out to be 0.87 µM; with HCT116 cells, 0.15 µM.

Take `O=C(Nc1cc(C2CCN(Cc3ccccc3)C2)ccn1)Nc1cccc2c1C1CCCN1C2=O` (stereo not shown) [Working Example No. 165, N′-(pyrrolidino[2,1-b]isoindolin-4-on-8-yl)-N-(4-(N-benzylpyrrolidin-3-yl)pyridin-2-yl)urea]: the IC50 turned out to be 0.016 µM on cyclin D2-Cdk4 and 0.013 µM against cyclin D3-Cdk6.

For the origin of these results see patent publication US6958333B1, “Biarylurea derivatives” (Banyu Pharmaceutical Co., Ltd., priority 1999, dated 2005).
